Measured values taken from the CheMixHub viscosity set.

Test: xn = mol fraction of the nth substance listed

CCOC(=O)CCl + N#CCc1ccccc1
Details | viscosity [mPa·s]
308.15 K, 101 kPa, x2 = 0.3793 | 1.155

C[N+]1(CC2CO2)CCCC1=O.[Cl-] (configuration not stated) + CC(=O)O
viscosity [mPa·s], 101 kPa
Details | 293.15 K | 298.15 K | 303.15 K | 308.15 K | 313.15 K
x1 = 0.0373 | 1.592 | 1.448 | 1.322 | 1.213 | 1.115
x1 = 0.0644 | 1.83 | 1.652 | 1.5 | 1.371 | 1.256
x1 = 0.1087 | 2.234 | 2 | 1.802 | 1.632 | 1.489
x1 = 0.2041 | 2.728 | 2.425 | 2.172 | 1.959 | 1.776
x1 = 0.3022 | 2.803 | 2.492 | 2.235 | 2.018 | 1.831
x1 = 0.4053 | 2.587 | 2.314 | 2.087 | 1.892 | 1.723
x1 = 0.5054 | 2.324 | 2.095 | 1.9 | 1.731 | 1.586
x1 = 0.605 | 2.107 | 1.908 | 1.738 | 1.591 | 1.465
x1 = 0.7073 | 1.919 | 1.746 | 1.597 | 1.469 | 1.356
x1 = 0.8065 | 1.817 | 1.657 | 1.521 | 1.402 | 1.297
x1 = 0.9047 | 1.752 | 1.602 | 1.473 | 1.36 | 1.261

CCOCCOCCOCC + CCCO
298.15 K, 101.33 kPa
Details | viscosity [mPa·s]
x1 = 0.007 | 1.918
x1 = 0.0129 | 1.894
x1 = 0.0249 | 1.844
x1 = 0.0395 | 1.788
x1 = 0.0516 | 1.747
x1 = 0.0695 | 1.687
x1 = 0.097 | 1.611
x1 = 0.1283 | 1.541
x1 = 0.1736 | 1.458
x1 = 0.2229 | 1.396
x1 = 0.2672 | 1.354
x1 = 0.3115 | 1.32
x1 = 0.3638 | 1.291
x1 = 0.4026 | 1.28
x1 = 0.4592 | 1.259
x1 = 0.5239 | 1.243
x1 = 0.5856 | 1.231
x1 = 0.6363 | 1.227
x1 = 0.6742 | 1.225
x1 = 0.7119 | 1.224
x1 = 0.7662 | 1.222
x1 = 0.8311 | 1.226
x1 = 0.8815 | 1.231
x1 = 0.9142 | 1.235
x1 = 0.9468 | 1.239
x1 = 0.9756 | 1.24
